# Measured values: BindingDB's records for patent WO2023001061 (Jingrui Biopharma, 2023)
# pIC50: −log10 of the molar value.
# Target: CDK-activating kinase assembly factor MAT1/Cyclin-H/Cyclin-dependent kinase 7 (Homo sapiens, UniProt P50613)
# Assay: In Vitro Kinase assay (CDK7) and IC 50 determination
# Procedure: The kinase assay was carried out by Sundia MediTech Co., Ltd.
# CDK-activating kinase assembly factor MAT1/Cyclin-H/Cyclin-dependent kinase 7, sequence (P51946 whole entry): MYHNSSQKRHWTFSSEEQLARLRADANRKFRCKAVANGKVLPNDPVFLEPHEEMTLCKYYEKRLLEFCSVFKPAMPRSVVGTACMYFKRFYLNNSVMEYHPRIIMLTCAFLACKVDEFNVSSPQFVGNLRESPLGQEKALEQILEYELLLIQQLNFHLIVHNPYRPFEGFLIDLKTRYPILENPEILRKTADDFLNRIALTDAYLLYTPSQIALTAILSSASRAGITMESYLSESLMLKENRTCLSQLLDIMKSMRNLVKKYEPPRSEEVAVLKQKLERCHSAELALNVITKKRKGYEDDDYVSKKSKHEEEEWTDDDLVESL
# CDK-activating kinase assembly factor MAT1/Cyclin-H/Cyclin-dependent kinase 7, sequence (P50613 whole entry): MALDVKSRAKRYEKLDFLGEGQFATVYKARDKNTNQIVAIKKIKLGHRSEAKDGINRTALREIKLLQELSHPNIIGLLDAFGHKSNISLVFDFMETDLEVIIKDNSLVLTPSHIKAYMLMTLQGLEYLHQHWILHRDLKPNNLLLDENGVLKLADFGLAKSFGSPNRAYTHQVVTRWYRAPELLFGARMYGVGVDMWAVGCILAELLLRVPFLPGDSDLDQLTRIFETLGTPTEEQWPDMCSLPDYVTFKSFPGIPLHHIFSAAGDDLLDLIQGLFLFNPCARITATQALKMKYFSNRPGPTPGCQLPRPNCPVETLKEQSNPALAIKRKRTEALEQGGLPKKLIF
# CDK-activating kinase assembly factor MAT1/Cyclin-H/Cyclin-dependent kinase 7, sequence (P51948 whole entry, further chain): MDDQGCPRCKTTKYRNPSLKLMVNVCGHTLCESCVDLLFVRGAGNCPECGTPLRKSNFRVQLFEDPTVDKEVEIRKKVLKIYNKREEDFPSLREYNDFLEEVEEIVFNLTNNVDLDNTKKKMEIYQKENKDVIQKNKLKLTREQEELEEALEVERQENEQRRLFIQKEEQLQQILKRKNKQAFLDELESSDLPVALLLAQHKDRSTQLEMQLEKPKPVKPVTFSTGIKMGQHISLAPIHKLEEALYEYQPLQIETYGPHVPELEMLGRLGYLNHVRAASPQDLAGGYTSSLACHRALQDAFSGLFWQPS
row,Compound,pIC50
1,"CC(C)c1cnn2c(NCc3ccccc3N(C)C)cc(OC3CCN(C)CC3)nc12 [WO2023001061, Example 1]",> 7.30
2,"CC(C)c1cnn2c(NCC3CCCN3C)cc(NC[C@H]3CCNC[C@@H]3O)nc12 (stereo not given in full) [WO2023001061, Example 2]",> 7.30
3,"CC(C)c1cnn2c(NCc3nc4cc(N(C)C)ccc4s3)cc(NC[C@H]3CCNC[C@@H]3O)nc12 [WO2023001061, Example 4]",> 7.30
4,"CC(C)c1cnn2c(NCc3ccc4cccc(N(C)C)c4n3)cc(NC[C@H]3CCNC[C@@H]3O)nc12 [WO2023001061, Example 5]",> 7.30
5,"CC(C)c1cnn2c(NCc3ccnn3C)cc(NC[C@H]3CCNC[C@@H]3O)nc12 [WO2023001061, Example 6]",> 7.30
6,"CC(C)c1cnn2c(NCc3ccnn3C)cc(OC3CCN(C)CC3)nc12 [WO2023001061, Example 7]",> 7.30
7,"CC(C)c1cnn2c(NCC3CCCN3C)cc(OC3CCN(C)CC3)nc12 (stereo not given) [WO2023001061, Example 8]",> 6.30
8,"CC(C)c1cnn2c(NCc3ccn[nH]3)cc(NC[C@H]3CCNC[C@@H]3O)nc12 [WO2023001061, Example 9]",> 7.30
9,"CC(C)c1cnn2c(NCc3ccnn3C(C)C)cc(NC[C@H]3CCNC[C@@H]3O)nc12 [WO2023001061, Example 10]",> 7.30
10,"CC(C)c1cnn2c(NCc3ccnn3C3CC3)cc(NC[C@H]3CCNC[C@@H]3O)nc12 [WO2023001061, Example 11]",> 7.30
11,"CC(C)c1cnn2c(NCc3cncn3C)cc(NC[C@H]3CCNC[C@@H]3O)nc12 [WO2023001061, Example 13]",> 7.30
12,"CC(C)c1cnn2c(NCc3nccn3C)cc(NC[C@H]3CCNC[C@@H]3O)nc12 [WO2023001061, Example 14]",> 7.30
13,"CC(C)c1cnn2c(NCc3cccnc3N(C)C)cc(NC[C@H]3CCNC[C@@H]3O)nc12 [WO2023001061, Example 15]",> 7.30
14,"CC(C)c1cnn2c(NCC3CCCN3C)nc(OC3CCN(C)CC3)nc12 (stereo not given) [WO2023001061, Example 23]",> 6.30

# The next lines start with the values.
row,pIC50,Compound
1,> 7.30,"CC(C)c1cnn2c(NCc3ccnn3C)nc(OC3CCN(C)CC3)nc12 [WO2023001061, Example 26]"
2,> 7.30,"CC(C)c1cnn2c(NCc3ccc4cccc(N(C)C)c4n3)nc(OC3CCN(C)CC3)nc12 [WO2023001061, Example 27]"
3,> 7.30,"Cc1cc(CNc2nc(OC3CCN(C)CC3)nc3c(C(C)C)cnn23)n(C2CC2)n1 [WO2023001061, Example 28]"
4,> 7.30,"CC(C)c1cnn2c(NCc3ccn(C)n3)cc(NC[C@H]3CCNC[C@@H]3O)nc12 [WO2023001061, Example 29]"
5,> 7.30,"CC(C)c1cnn2c(NCc3nc4ccccc4s3)cc(NC[C@H]3CCNC[C@@H]3O)nc12 [WO2023001061, Example 30]"
6,> 7.30,"CC(C)c1cnn2c(NCc3nccs3)cc(NC[C@H]3CCNC[C@@H]3O)nc12 [WO2023001061, Example 31]"
7,> 7.30,"CC(C)c1cnn2c(NCc3nn(C)c4ccccc34)cc(NC[C@H]3CCNC[C@@H]3O)nc12 [WO2023001061, Example 35]"
8,> 7.30,"CC(C)c1cnn2c(NCc3nc4ccccc4n3C)cc(NC[C@H]3CCNC[C@@H]3O)nc12 [WO2023001061, Example 36]"
9,> 7.30,"CC(C)c1cnn2c(NCc3nc4cc(C(F)(F)F)ccc4s3)cc(NC[C@H]3CCNC[C@@H]3O)nc12 [WO2023001061, Example 38]"
10,> 7.30,"CC(C)c1cnn2c(NCc3nc4cc(Cl)ccc4s3)cc(NC[C@H]3CCNC[C@@H]3O)nc12 [WO2023001061, Example 39]"
11,> 7.30,"CC(C)c1cnn2c(NCc3nc(C4CC4)cs3)cc(NC[C@H]3CCNC[C@@H]3O)nc12 [WO2023001061, Example 48]"
